The target of this assay is T1, mouse AChE (Mus musculus, UniProt P21836).
T1 sequence (P21836 32-614): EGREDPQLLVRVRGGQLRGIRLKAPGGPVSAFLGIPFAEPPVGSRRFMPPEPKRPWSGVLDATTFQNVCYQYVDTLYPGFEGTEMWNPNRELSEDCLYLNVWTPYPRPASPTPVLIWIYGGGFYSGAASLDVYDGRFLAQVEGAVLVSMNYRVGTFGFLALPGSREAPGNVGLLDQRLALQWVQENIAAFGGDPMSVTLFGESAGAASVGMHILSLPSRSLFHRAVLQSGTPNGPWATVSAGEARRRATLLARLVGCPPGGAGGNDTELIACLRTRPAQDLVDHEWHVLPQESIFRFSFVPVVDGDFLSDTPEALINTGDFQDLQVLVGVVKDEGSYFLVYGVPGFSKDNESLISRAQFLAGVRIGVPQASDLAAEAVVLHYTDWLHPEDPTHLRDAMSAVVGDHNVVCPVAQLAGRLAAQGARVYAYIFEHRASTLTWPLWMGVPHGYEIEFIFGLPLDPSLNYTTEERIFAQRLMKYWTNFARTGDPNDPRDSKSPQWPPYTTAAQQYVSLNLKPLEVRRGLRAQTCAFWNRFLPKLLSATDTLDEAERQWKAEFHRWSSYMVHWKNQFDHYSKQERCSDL
The assay can be described thus: AChE inhibition, spectrophotometric Ellman's method on purified recombinant enzyme. Particulars: 1 mM acetylthiocholine iodide, pH 7.4. (In Ellman's method for cholinesterases, released thiocholine reacts with DTNB.)

The IC50 is the midpoint of a concentration-inhibition curve.

Protocol: Mouse AChE was expressed in HEK293 F cells and purified as previously reported.3 The activity
of AChE was measured using the Ellman assay adaped to a 96-well plate format.4 The
acetylthiocholine iodide was 1 mM. The measurements were performed in 0.1 M phosphate
Determination of IC50 values for the compounds
inhibition of AChE was performed as previously reported.6 At least 5 replicate IC50 determinations at 8
inhibitor concentrations were performed for each compound. The obtained dose-response curve was
fitted using the response variable slope versus log(inhibitor concentration) equation (four parameters) in
GraphPad Prism software 5.0.

Turning to `Cc1c(C)c2ccc(OCC3CCCN(Cc4ccccc4)C3)cc2oc1=O` (single isomer, unassigned; (+)) [(+)-2, 7-[(1-benzylpiperidin-3-yl)methoxy]-3,4-dimethyl-2H-chromen-2-one], the IC50 turned out to be 1500 ± 100 nM.
Take `Cc1c(C)c2ccc(OCC3CCCN(Cc4ccccc4)C3)cc2oc1=O` (single isomer, unassigned; (-)) [(−)-2, 7-[(1-benzylpiperidin-3-yl)methoxy]-3,4-dimethyl-2H-chromen-2-one]: the IC50 was determined as 700 ± 50 nM.

The values above are taken from article PMC8919507, “Dual Reversible Coumarin Inhibitors Mutually Bound to Monoamine Oxidase B and Acetylcholinesterase Crystal Structures” (ACS Medicinal Chemistry Letters, 2022).
